{"source": "patent US4268503A", "about": "“Antibacterial composition” (Fujisawa Pharmaceutical Co., Ltd., priority 1979, dated 1981)", "type_in_all_cases": "cell-based", "key": {"[1]": {"test_system": "Enterobacter cloacae 1401-4", "experiment": "Tests 2 and 3: MIC and synergism (FIC) in vitro", "conditions": "14014, E. cloacae 1401-4, Nutrient agar, 10^5 cells/ml, 37° C., 20 hours", "protocol": "(§1) On a Nutrient agar (Difco) containing prescribed amount of each of monosodium salt of 3-(N-formyl-N-hydroxyamino)propylphosphonic acid, monosodium salt of ampicillin and a mixture of 3-(N-formyl-N-hydroxyamino)propylphosphonic acid and monosodium salt of ampicillin (1:1 by weight), there was streaked a loopful of cultured broth of each pathogen, which was cultured overnight in Nutrient broth (Difco), in a concentration of 10^5 cells/ml. After the incubation was carried out at 37° C. for 20 hours, MIC values were determined.\n(§2) FIC values and FIC Index were calculated in substantially the same manner as described in Test 1.\n(§3) Synergistic activity of 3-(N-formyl-N-hydroxyamino)propylphosphonic acid and cefazolin; that of 3-(N-formyl-N-hydroxyamino)propylphosphonic acid and ticarcillin; and that of 3-(N-formyl-N-hydroxyamino)propylphosphonic acid and nocardicin A were tested in vitro in substantially the same manner as described in the above Test 2."}, "[2]": {"test_system": "Klebsiella pneumoniae NCTC 418", "experiment": "Tests 2 and 3: MIC and synergism (FIC) in vitro", "conditions": "NCTC418, 20 h", "protocol": "as §1, §2, §3"}, "[3]": {"test_system": "Proteus mirabilis 1432-75", "experiment": "Tests 2 and 3: MIC and synergism (FIC) in vitro", "conditions": "Proteus mirabilis, 143275, 20 h", "protocol": "as §1, §2, §3"}, "[4]": {"test_system": "Salmonella typhimurium 1406", "experiment": "Tests 2 and 3: MIC and synergism (FIC) in vitro", "conditions": "Salmonella enterica, 20 h", "protocol": "as §1, §2, §3"}, "[5]": {"test_system": "Serratia marcescens 1421-4", "experiment": "Tests 2 and 3: MIC and synergism (FIC) in vitro", "conditions": "14214, S. marcescens 1421-4, Nutrient agar, 10^5 cells/ml, 37° C., 20 hours", "protocol": "as §1, §2, §3"}, "[6]": {"test_system": "Staphylococcus epidermidis 1601-1", "experiment": "Tests 2 and 3: MIC and synergism (FIC) in vitro", "conditions": "16011, S. epidermidis 1601-1, Nutrient agar, 10^5 cells/ml, 37° C., 20 hours", "protocol": "as §1, §2, §3"}, "Klebsiella pneumoniae 8": {"test_system": "Klebsiella pneumoniae 8", "experiment": "Test 8: synergistic activity in various combination ratios (isobologram, growth)", "parameters": "key: the symbol \"+\" means that the test microorganism grew; the symbol \"-\" means that the test microorganism did not grow", "protocol": "Into a Nutrient broth (Difco) containing prescribed amounts of monosodium salt of 3-(N-formyl-N-hydroxyamino)-propylphosphonic acid and gentamicin sulfate, was inoculated 0.5% of 10-fold dilution of cultured broth of pathogen which was cultured overnight in Nutrient broth (Eiken). After the incubation was carried out at 37° C. for 18 hours, the growth of the test organism was observed."}}}
{"compound": "CC1(C)S[C@@H]2[C@H](NC(=O)[C@H](C(=O)O)c3ccsc3)C(=O)N2[C@H]1C(=O)O", "note": "[ticarcillin]", "values": [{"measurement": "MIC", "setting": "[1]", "value": 50, "unit": "mg/L"}, {"measurement": "MIC", "setting": "[2]", "value": 100, "unit": "mg/L"}, {"measurement": "MIC", "setting": "[3]", "value": 0.78, "unit": "mg/L"}, {"measurement": "MIC", "setting": "[4]", "value": 1.56, "unit": "mg/L"}, {"measurement": "MIC", "setting": "[5]", "value": 25, "unit": "mg/L"}, {"measurement": "MIC", "setting": "[6]", "value": 3.13, "unit": "mg/L"}]}
{"compound": "gentamicin", "values": [{"measurement": "growth of test microorganism", "setting": "Klebsiella pneumoniae 8; gentamicin sulfate 0.001, phosphonic acid 0 mcg/ml", "value": "+"}, {"measurement": "growth of test microorganism", "setting": "Klebsiella pneumoniae 8; gentamicin sulfate 0.003, phosphonic acid 0 mcg/ml", "value": "+"}, {"measurement": "growth of test microorganism", "setting": "Klebsiella pneumoniae 8; gentamicin sulfate 0.006, phosphonic acid 0 mcg/ml", "value": "+"}, {"measurement": "growth of test microorganism", "setting": "Klebsiella pneumoniae 8; gentamicin sulfate 0.01, phosphonic acid 0 mcg/ml", "value": "+"}, {"measurement": "growth of test microorganism", "setting": "Klebsiella pneumoniae 8; gentamicin sulfate 0.025, phosphonic acid 0 mcg/ml", "value": "+"}, {"measurement": "growth of test microorganism", "setting": "Klebsiella pneumoniae 8; gentamicin sulfate 0.05, phosphonic acid 0 mcg/ml", "value": "-"}]}
{"compound": "O=CN(O)CCCP(=O)(O)O", "note": "[3-(N-formyl-N-hydroxyamino)propylphosphonic acid]", "values": [{"measurement": "growth of test microorganism", "setting": "Klebsiella pneumoniae 8; gentamicin sulfate 0, phosphonic acid 0.78 mcg/ml, 37° C., 18 hours", "value": "+"}, {"measurement": "growth of test microorganism", "setting": "Klebsiella pneumoniae 8; gentamicin sulfate 0, phosphonic acid 1.56 mcg/ml", "value": "+"}, {"measurement": "growth of test microorganism", "setting": "Klebsiella pneumoniae 8; gentamicin sulfate 0, phosphonic acid 3.13 mcg/ml", "value": "+"}, {"measurement": "growth of test microorganism", "setting": "Klebsiella pneumoniae 8; gentamicin sulfate 0, phosphonic acid 6.25 mcg/ml", "value": "+"}, {"measurement": "growth of test microorganism", "setting": "Klebsiella pneumoniae 8; gentamicin sulfate 0, phosphonic acid 12.5 mcg/ml", "value": "+"}, {"measurement": "growth of test microorganism", "setting": "Klebsiella pneumoniae 8; gentamicin sulfate 0, phosphonic acid 25 mcg/ml", "value": "-"}]}
